# Experimental data published in PubChem BioAssay (NCI).
#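 GI50 is the concentration that inhibits growth by half. At the TGI there is no net growth.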
# What was measured:
# Assay in all cases: NCI tumour cell line growth inhibition, 384-well format
# ACHN renal = test system: ACHN renal
# 786-0 renal = test system: 786-0 renal
# IGROV1 ovarian = test system: IGROV1 ovarian
# SR leukemia = test system: SR leukemia
# NCI-H322M lung = test system: NCI-H322M lung
# HL-60(TB) leukemia = test system: HL-60(TB) leukemia
# NCI-H460 NSCLC = test system: NCI-H460 NSCLC
# SK-MEL-2 melanoma = test system: SK-MEL-2 melanoma
# NCI-H522 lung = test system: NCI-H522 lung
# DU-145 prostate = test system: DU-145 prostate
# NCI-H226 lung = test system: NCI-H226 lung
# MDA-MB-435 melanoma = test system: MDA-MB-435 melanoma
# MDA-MB-468 breast = test system: MDA-MB-468 breast
# NCI-H23 lung = test system: NCI-H23 lung
# MCF7 breast = test system: MCF7 breast
# K-562 leukemia = test system: K-562 leukemia
# MDA-MB-231 breast = test system: MDA-MB-231 breast
# HOP-62 NSCLC = test system: HOP-62 NSCLC
# COLO 205 colon = test system: COLO 205 colon
# SF-268 CNS = test system: SF-268 CNS
# HCT-116 colon = test system: HCT-116 colon
# SNB-19 CNS = test system: SNB-19 CNS
# HT29 colon = test system: HT29 colon
# TK-10 renal = test system: TK-10 renal
# LOX IMVI melanoma = test system: LOX IMVI melanoma
# BT-549 breast = test system: BT-549 breast
# EKVX NSCLC = test system: EKVX NSCLC
# SN12C renal = test system: SN12C renal
# SK-OV-3 ovarian = test system: SK-OV-3 ovarian
# KM12 colon = test system: KM12 colon
# A498 renal = test system: A498 renal
# OVCAR-5 ovarian = test system: OVCAR-5 ovarian
# M14 melanoma = test system: M14 melanoma
# HS 578T breast = test system: HS 578T breast
# OVCAR-3 ovarian = test system: OVCAR-3 ovarian
# RXF 393 renal = test system: RXF 393 renal
# PC-3 prostate = test system: PC-3 prostate
# SW-620 colon = test system: SW-620 colon
# A549 NSCLC = test system: A549 NSCLC
# SF-295 CNS = test system: SF-295 CNS
# MALME-3M melanoma = test system: MALME-3M melanoma
# UACC-257 melanoma = test system: UACC-257 melanoma
# CAKI-1 renal = test system: CAKI-1 renal
# U251 glioblastoma = test system: U251 glioblastoma
# MOLT-4 leukemia = test system: MOLT-4 leukemia
# UO-31 renal = test system: UO-31 renal
# OVCAR-4 ovarian = test system: OVCAR-4 ovarian
smiles,measurement,setting,value
COc1cc(C)[nH]c(=O)c1CN1CCc2c(Cl)cc([C@H](OC)C3COC3)c(Cl)c2C1=O,GI50,ACHN renal,> 100 µM
same,TGI,ACHN renal,> 100 µM
same,GI50,786-0 renal,> 100 µM
same,TGI,786-0 renal,> 100 µM
same,GI50,IGROV1 ovarian,> 100 µM
same,TGI,IGROV1 ovarian,> 100 µM
same,GI50,SR leukemia,> 100 µM
same,TGI,SR leukemia,> 100 µM
same,GI50,NCI-H322M lung,> 100 µM
same,TGI,NCI-H322M lung,> 100 µM
same,GI50,HL-60(TB) leukemia,> 78.5 µM
same,TGI,HL-60(TB) leukemia,> 100 µM
same,GI50,NCI-H460 NSCLC,> 100 µM
same,TGI,NCI-H460 NSCLC,> 100 µM
same,GI50,SK-MEL-2 melanoma,> 100 µM
same,TGI,SK-MEL-2 melanoma,> 100 µM
same,GI50,NCI-H522 lung,> 100 µM
same,TGI,NCI-H522 lung,> 100 µM
same,GI50,DU-145 prostate,> 100 µM
same,TGI,DU-145 prostate,> 100 µM
same,GI50,NCI-H226 lung,> 100 µM
same,TGI,NCI-H226 lung,> 100 µM
same,GI50,MDA-MB-435 melanoma,> 100 µM
same,TGI,MDA-MB-435 melanoma,> 100 µM
same,GI50,MDA-MB-468 breast,> 100 µM
same,TGI,MDA-MB-468 breast,> 100 µM
same,GI50,NCI-H23 lung,> 100 µM
same,TGI,NCI-H23 lung,> 100 µM
same,GI50,MCF7 breast,> 100 µM
same,TGI,MCF7 breast,> 100 µM
same,GI50,K-562 leukemia,> 100 µM
same,TGI,K-562 leukemia,> 100 µM
same,GI50,MDA-MB-231 breast,> 78.3 µM
same,TGI,MDA-MB-231 breast,> 100 µM
same,GI50,HOP-62 NSCLC,> 100 µM
same,TGI,HOP-62 NSCLC,> 100 µM
same,GI50,COLO 205 colon,> 100 µM
same,TGI,COLO 205 colon,> 100 µM
same,GI50,SF-268 CNS,> 100 µM
same,TGI,SF-268 CNS,> 100 µM
same,GI50,HCT-116 colon,> 100 µM
same,TGI,HCT-116 colon,> 100 µM
same,GI50,SNB-19 CNS,> 100 µM
same,TGI,SNB-19 CNS,> 100 µM
same,GI50,HT29 colon,> 100 µM
same,TGI,HT29 colon,> 100 µM
same,GI50,TK-10 renal,> 100 µM
same,TGI,TK-10 renal,> 100 µM
same,GI50,LOX IMVI melanoma,> 100 µM
same,TGI,LOX IMVI melanoma,> 100 µM
same,GI50,BT-549 breast,> 100 µM
same,TGI,BT-549 breast,> 100 µM
same,GI50,EKVX NSCLC,> 100 µM
same,TGI,EKVX NSCLC,> 100 µM
same,GI50,SN12C renal,> 100 µM
same,TGI,SN12C renal,> 100 µM
same,GI50,SK-OV-3 ovarian,> 100 µM
same,TGI,SK-OV-3 ovarian,> 100 µM
same,GI50,KM12 colon,> 100 µM
same,TGI,KM12 colon,> 100 µM
same,GI50,A498 renal,> 100 µM
same,TGI,A498 renal,> 100 µM
same,GI50,OVCAR-5 ovarian,> 100 µM
same,TGI,OVCAR-5 ovarian,> 100 µM
same,GI50,M14 melanoma,> 100 µM
same,TGI,M14 melanoma,> 100 µM
same,GI50,HS 578T breast,> 100 µM
same,TGI,HS 578T breast,> 100 µM
same,GI50,OVCAR-3 ovarian,> 100 µM
same,TGI,OVCAR-3 ovarian,> 100 µM
same,GI50,RXF 393 renal,> 100 µM
same,TGI,RXF 393 renal,> 100 µM
same,GI50,PC-3 prostate,> 100 µM
same,TGI,PC-3 prostate,> 100 µM
same,GI50,SW-620 colon,> 100 µM
same,TGI,SW-620 colon,> 100 µM
same,GI50,A549 NSCLC,> 100 µM
same,TGI,A549 NSCLC,> 100 µM
same,GI50,SF-295 CNS,> 100 µM
same,TGI,SF-295 CNS,> 100 µM
same,GI50,MALME-3M melanoma,> 100 µM
same,TGI,MALME-3M melanoma,> 100 µM
same,GI50,UACC-257 melanoma,> 100 µM
same,TGI,UACC-257 melanoma,> 100 µM
same,GI50,CAKI-1 renal,> 100 µM
same,TGI,CAKI-1 renal,> 100 µM
same,GI50,U251 glioblastoma,> 100 µM
same,TGI,U251 glioblastoma,> 100 µM
same,GI50,MOLT-4 leukemia,> 100 µM
same,TGI,MOLT-4 leukemia,> 100 µM
same,GI50,UO-31 renal,> 100 µM
same,TGI,UO-31 renal,> 100 µM
same,GI50,OVCAR-4 ovarian,> 100 µM
same,TGI,OVCAR-4 ovarian,> 100 µM
C[C@@H](Oc1cc(NS(=O)(=O)N2CCC2)nc(SCc2cccc(F)c2F)n1)[C@@H](O)CO,GI50,ACHN renal,> 100 µM
same,TGI,ACHN renal,> 100 µM
same,GI50,786-0 renal,> 100 µM
same,TGI,786-0 renal,> 100 µM
same,GI50,IGROV1 ovarian,> 100 µM
same,TGI,IGROV1 ovarian,> 100 µM
same,GI50,SR leukemia,> 100 µM
same,TGI,SR leukemia,> 100 µM
same,GI50,NCI-H322M lung,> 100 µM
same,TGI,NCI-H322M lung,> 100 µM
same,GI50,HL-60(TB) leukemia,> 36 µM
same,TGI,HL-60(TB) leukemia,> 51.2 µM
same,GI50,NCI-H460 NSCLC,> 100 µM
same,TGI,NCI-H460 NSCLC,> 100 µM
same,GI50,SK-MEL-2 melanoma,> 79.6 µM
same,TGI,SK-MEL-2 melanoma,> 100 µM
same,GI50,NCI-H522 lung,> 43.5 µM
same,TGI,NCI-H522 lung,> 100 µM
same,GI50,DU-145 prostate,> 100 µM
same,TGI,DU-145 prostate,> 100 µM
same,GI50,NCI-H226 lung,> 89.3 µM
same,TGI,NCI-H226 lung,> 100 µM
same,GI50,MDA-MB-435 melanoma,> 100 µM
same,TGI,MDA-MB-435 melanoma,> 100 µM
same,GI50,MDA-MB-468 breast,> 78.2 µM
same,TGI,MDA-MB-468 breast,> 100 µM
same,GI50,NCI-H23 lung,99.2 µM
same,TGI,NCI-H23 lung,> 100 µM
same,GI50,MCF7 breast,> 52.1 µM
same,TGI,MCF7 breast,> 100 µM
same,GI50,K-562 leukemia,> 68.3 µM
same,TGI,K-562 leukemia,> 100 µM
same,GI50,MDA-MB-231 breast,> 75.9 µM
same,TGI,MDA-MB-231 breast,> 100 µM
same,GI50,HOP-62 NSCLC,> 100 µM
same,TGI,HOP-62 NSCLC,> 100 µM
same,GI50,COLO 205 colon,> 89.8 µM
same,TGI,COLO 205 colon,> 100 µM
same,GI50,SF-268 CNS,> 100 µM
same,TGI,SF-268 CNS,> 100 µM
same,GI50,HCT-116 colon,> 100 µM
same,TGI,HCT-116 colon,> 100 µM
same,GI50,SNB-19 CNS,> 100 µM
same,TGI,SNB-19 CNS,> 100 µM
same,GI50,HT29 colon,> 100 µM
same,TGI,HT29 colon,> 100 µM
same,GI50,TK-10 renal,> 66 µM
same,TGI,TK-10 renal,> 100 µM
same,GI50,LOX IMVI melanoma,42.1 µM
same,TGI,LOX IMVI melanoma,> 100 µM
same,GI50,BT-549 breast,> 71.9 µM
same,TGI,BT-549 breast,> 100 µM
same,GI50,EKVX NSCLC,> 100 µM
same,TGI,EKVX NSCLC,> 100 µM
same,GI50,SN12C renal,> 100 µM
same,TGI,SN12C renal,> 100 µM
same,GI50,SK-OV-3 ovarian,> 83.6 µM
same,TGI,SK-OV-3 ovarian,> 100 µM
same,GI50,KM12 colon,98.3 µM
same,TGI,KM12 colon,> 100 µM
same,GI50,A498 renal,> 79 µM
same,TGI,A498 renal,> 100 µM
same,GI50,OVCAR-5 ovarian,> 100 µM
same,TGI,OVCAR-5 ovarian,> 100 µM
same,GI50,M14 melanoma,> 95.7 µM
same,TGI,M14 melanoma,> 100 µM
same,GI50,HS 578T breast,57.7 µM
same,TGI,HS 578T breast,> 100 µM
same,GI50,OVCAR-3 ovarian,> 73.9 µM
same,TGI,OVCAR-3 ovarian,> 100 µM
same,GI50,RXF 393 renal,> 81.5 µM
same,TGI,RXF 393 renal,> 100 µM
same,GI50,PC-3 prostate,> 76.7 µM
same,TGI,PC-3 prostate,> 100 µM
same,GI50,SW-620 colon,> 100 µM
same,TGI,SW-620 colon,> 100 µM
same,GI50,A549 NSCLC,> 100 µM
same,TGI,A549 NSCLC,> 100 µM
same,GI50,SF-295 CNS,> 100 µM
same,TGI,SF-295 CNS,> 100 µM
same,GI50,MALME-3M melanoma,> 82.1 µM
same,TGI,MALME-3M melanoma,> 100 µM
same,GI50,UACC-257 melanoma,> 87.1 µM
same,TGI,UACC-257 melanoma,> 100 µM
same,GI50,CAKI-1 renal,> 60.8 µM
same,TGI,CAKI-1 renal,> 100 µM
same,GI50,U251 glioblastoma,> 100 µM
same,TGI,U251 glioblastoma,> 100 µM
same,GI50,MOLT-4 leukemia,> 61.8 µM
same,TGI,MOLT-4 leukemia,> 100 µM
same,GI50,UO-31 renal,17.9 µM
same,TGI,UO-31 renal,34.3 µM
same,GI50,OVCAR-4 ovarian,> 72.7 µM
same,TGI,OVCAR-4 ovarian,> 100 µM
